Experimental data from patent publication US20180318291A1, “USE OF AMINOTHIAZOLE MYD88 SPECIFIC INHIBITOR TJM2010-5” (WUHAN INNAMUNE PHARMACEUTICAL INC. LTD., priority 2015, published 2018).

Key:
mice with endoxemia = test: endoxemia lethal experiment (LPS); type: in vivo; details: 250 mg/kg intragastric once a day for three days, then LPS ip; FIG. 15(a)
Method: Part one: Observe the effect of MyD88 inhibitor on mortality of mice with endoxemia. The mice will be divided into 2 groups randomly:
Vehicle control group and experiment group (TJM2010-5 treatment group), and 20 mice in each group. Where, the TJM2010-5 treatment group is provided with the intragastric administration of TJM2010-5 (0.5% CMC solvent, 25 mg/ml) at the dose of 250 mg/kg (200 μL per mouse); the vehicle control group is provided with the intragastric administration of 0.5% CMC, 200 μL per mouse. Apply the intragastric administration once a day, and for three days successively. And on day 3, after the […], provide the intraperitoneal injection of LPS 1 hour later, then, observe the survival condition every twelve hours, and for three days.

NOD mice = test: diabetes mellitus type I model in NOD mice; type: in vivo; details: 150 mg/kg/d intraperitoneal, observed 30 weeks, FIG. 4
Method: 1. Experimental groups: MyD88KO NOD mice, MyD88KO/+NOD mice, NOD mice TJM2010-5 treatment group.
2. Treatment group: Provide intraperitoneal injection of TJM2010-5 dissolved in 0.5% CMC of 150 mg/kg/d on the day before antigen injection, and on day 0 to day 3, and day 5, 7, 9, 11, 13 and 15 day after injection.
3. Provide intraperitoneal injection of mycobacterium antigen to mice in each group and monitor the concentration constantly.
4. Feed in clean level and observe for 30 weeks, and take the tail venous blood to test the non-fasting blood-glucose. The standard for diabetes modeling is obtaining the blood-glucose no less than 22 mmol/L for 2 times successively.

[1] = system: skin of Balb/c mice transplanted to C57bl/6 mice; test: mice skin transplantation model (graft survival, tolerance); type: in vivo; details: Balb/c skin to C57bl/6; TJM2010-5 150 mg/kg/d ip, MR1 200 μg/d ip
Description: 2) Application of TJM2010-5 combined with costimulatory molecules inhibitor-anti-CD154 monoclonal antibody (MR1) in mice skin transplantation model
Five groups are set in the experiment, which are: allogeneic skin grafting control group (the rejection time reported in literature is 8-10 days), TJM2010-5 group, MR1 group and combination treatment group (TJM2010-5+MR1).
The specific handling methods as follows:
Allogeneic skin grafting CMC control group: take and transplant the skin of Balb/c mice to the back of C57bl/6 mice, and provide intraperitoneal injection of 0.5% CMC on day 0 to day 3, and day 5, 7, 9, 11, 13, 15 after the operation, the does is 200 μl/day; in the homogenic skin transplantation group: take and transplant the […] of C57bl/6 mice to the back of C57bl/6 mice, and no special treatment is provided after operation.
The TJM2010-5 Group: take and transplant the skin of Balb/c mice to the back of C57bl/6 mice, and provide intraperitoneal injection of the TJM2010-5 dissolved in 0.5% CMC on day 0 to day 3, and day 5, 7, 9, 11, 13, 15 after the operation, the does is 150 mg/kg/d;
The MR1 Group: take and transplant the skin of Balb/c mice to the back of C57bl/6 mice, and provide intraperitoneal injection of MR 1 on day 0, 1, 3, 7, 14 after the operation, the does is of 200 μg/d; […]

DC = test: CD80/CD86 expression on bone marrow DC by flow cytometry; type: cell-based, mice
Method: 1. Derive the bone marrow cell from the BALB/c mice administrated with TJM2010-5, destruct the red blood cell, and place them into the RPMI1640 medium with the concentration of 2×10^6/ML (adding GM-CSF of 10 ng/ml, IL-4 of 10 ng/ml);
2. Remove the suspension cell 48 hours later, and collect the suspension and anchorage-dependent cell on day 6.
3. Place DCs into […] of TJM2010-5 for cultivating for 1 hour, add necrotic myocardium supernate, LPS (200 ng/ml), Poly I:C (20 mg/ml), CpG (10 mg/ml) to cultivate the cells for 12 hours.
4. Add the flow antibody FITC to label anti-CD80, CD86, and conduct detection with machine.
(§1) DC: Place the cells into a 48-pore plate, the number of cells is 1×10^6/pore, and 1 ml of medium system is added to each pore. Firstly, add TJM2010-5 of different concentration gradients to pre-incubate the cells for 2 h, then, add the LPS to get the final concentration of 1 ug/ml, and then incubate them in CO2 incubator at 37° C. for one night (12 h).
(§2) Add the flow antibody FITC to label anti-CD80, CD86, and conduct detection with machine.

RAW264.7 cell = test: CD80 expression on RAW264.7 (macrophage) cells by flow cytometry; type: cell-based
Method: TJM2010-5 can inhibit the up-regulation of RAW264.7 cell on costimulatory molecules CD80 caused by TLR stimulant (LPS, CpG), which means that TJM2010-5 can effectively block the TLR signal pathway, thus to inhibit the cells' immune reaction.
as §1, with “Raw264.7: Place” for “DC: Place”, “is 9×10^5/pore,” for “is 1×10^6/pore,”, “the CPG” for “the LPS”, “of 40” for “of 1”, “h). Add the flow antibody FITC to label anti-CD80, CD86, and conduct detection with machine;” for “h).”
as §2

O=C(CCN1CCN(Cc2ccccc2)CC1)Nc1nc(-c2ccccc2)cs1 [TJM2010-5, 3-(4-benzylpiperazin-1-yl)-N-(4-phenylthiazol-2-yl) propanamide]
death incurred by endotoxin (mice with endoxemia): effectively delay
lethality of endotoxin (mice with endoxemia): reduce
incidence rate of diabetes mellitus type I (NOD mice): equivalent to that of MyD88KO homozygote group
effect on tolerance induction of the skin graft [1]: no obvious effect
up-regulation of costimulatory molecules CD80/CD86 incurred by LPS, CpG (DC): inhibit up-regulation
expression of CD80 on DC surface (DC; DC, 2 h pre-incubation, LPS 1 ug/ml, 12 h, FIG. 3c): concentration-dependent inhibition
CD80 expression on DC stimulated by LPS, CPG, cardiac tissue homogenate (DC; FIG. 3b): down-regulate
up-regulation of costimulatory molecule CD80 caused by TLR stimulant (LPS, CpG) (RAW264.7 cell; RAW264.7 cell): inhibit
expression of CD80 on macrophage surface (RAW264.7 cell; Raw264.7, 2 h pre-incubation, CPG 40 ug/ml, 12 h, FIG. 3d): concentration-dependent inhibition
